Each structure is given as a SMILES string. A value given as a limit tells only on which side of the number the result lay.

In series [1] the target is Rho-associated protein kinase 2 (Homo sapiens, UniProt O75116). The experiment in a line: Inhibition of ROCK2.
The target of the next series is Cytochrome P450 3A4 (Homo sapiens, UniProt P08684).
Series [2] can be described thus: Oral bioavailability in rat at 2 mg/kg. The class given is ADME, organism-based. The settings on record: in vivo.
Series [3] is filed under the species Homo sapiens. The experiment in a line: Selectivity for ROCK2 over PKA.
The nature of series [4]: Metabolic stability in human liver microsomes.
Series [5] in a line: Tmax in rat at 2 mg/kg, po. The class given is ADME, organism-based. Set-up: dose 2 mg/kg, route oral. The settings on record: in vivo.
Series [6] in a line: Inhibition of PKA. Set-up: species or system Homo sapiens.
Series [7] is described as follows: Inhibition of MRCK. Also noted: species or system Homo sapiens.
Series [8] can be described thus: Half life in rat at 1 mg/kg, iv. The class given is ADME, organism-based. Set-up: dose 1 mg/kg, route intravenous. The conditions noted are these: in vivo.
Series [9] is described as follows: Volume of distribution in rat at 1 mg/kg, iv. The class given is ADME, organism-based. Also noted: dose 1 mg/kg, route intravenous. The conditions noted are these: in vivo.
For series [10], the species on record is Homo sapiens. The experiment in a line: Selectivity for ROCK2 over MRCK.
A short description of series [11]: AUC (0 to infinity) in rat at 2 mg/kg, po. The class given is ADME, organism-based. Also noted: time infinity, dose 2 mg/kg, route oral. The conditions noted are these: plasma.
Another series relates to N2a. The experiment in a line: Inhibition of LPA-induced neurite retraction in mouse N2A cells. The class given is functional, cell-based.
Series [12] is described as follows: AUC (0 to infinity) in rat at 1 mg/kg, iv. The class given is ADME, organism-based. Set-up: time infinity, dose 1 mg/kg, route intravenous. The settings on record: plasma.
A short description of series [13]: Cmax in rat at 2 mg/kg, po. It counts as ADME, organism-based. Set-up: dose 2 mg/kg, route oral. The settings on record: in vivo.
The nature of series [14]: Clearance in rat at 1 mg/kg, iv. The settings on record: in vivo. Set-up: dose 1 mg/kg, route intravenous. It counts as ADME, organism-based.

Chain of Cytochrome P450 3A4 (P08684 whole entry): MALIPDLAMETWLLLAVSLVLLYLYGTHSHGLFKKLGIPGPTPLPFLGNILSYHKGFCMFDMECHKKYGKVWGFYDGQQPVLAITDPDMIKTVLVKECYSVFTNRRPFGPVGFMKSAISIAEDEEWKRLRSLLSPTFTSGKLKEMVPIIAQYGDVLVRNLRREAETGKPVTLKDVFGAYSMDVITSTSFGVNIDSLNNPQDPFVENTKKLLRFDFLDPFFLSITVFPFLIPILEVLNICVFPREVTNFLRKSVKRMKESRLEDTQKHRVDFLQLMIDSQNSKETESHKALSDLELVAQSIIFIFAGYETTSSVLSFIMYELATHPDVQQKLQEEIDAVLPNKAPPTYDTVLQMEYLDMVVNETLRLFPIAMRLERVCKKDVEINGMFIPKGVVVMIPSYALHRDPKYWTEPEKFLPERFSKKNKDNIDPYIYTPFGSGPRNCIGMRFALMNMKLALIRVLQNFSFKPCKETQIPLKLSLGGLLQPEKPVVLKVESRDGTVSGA
Chain of Rho-associated protein kinase 2 (O75116 whole entry): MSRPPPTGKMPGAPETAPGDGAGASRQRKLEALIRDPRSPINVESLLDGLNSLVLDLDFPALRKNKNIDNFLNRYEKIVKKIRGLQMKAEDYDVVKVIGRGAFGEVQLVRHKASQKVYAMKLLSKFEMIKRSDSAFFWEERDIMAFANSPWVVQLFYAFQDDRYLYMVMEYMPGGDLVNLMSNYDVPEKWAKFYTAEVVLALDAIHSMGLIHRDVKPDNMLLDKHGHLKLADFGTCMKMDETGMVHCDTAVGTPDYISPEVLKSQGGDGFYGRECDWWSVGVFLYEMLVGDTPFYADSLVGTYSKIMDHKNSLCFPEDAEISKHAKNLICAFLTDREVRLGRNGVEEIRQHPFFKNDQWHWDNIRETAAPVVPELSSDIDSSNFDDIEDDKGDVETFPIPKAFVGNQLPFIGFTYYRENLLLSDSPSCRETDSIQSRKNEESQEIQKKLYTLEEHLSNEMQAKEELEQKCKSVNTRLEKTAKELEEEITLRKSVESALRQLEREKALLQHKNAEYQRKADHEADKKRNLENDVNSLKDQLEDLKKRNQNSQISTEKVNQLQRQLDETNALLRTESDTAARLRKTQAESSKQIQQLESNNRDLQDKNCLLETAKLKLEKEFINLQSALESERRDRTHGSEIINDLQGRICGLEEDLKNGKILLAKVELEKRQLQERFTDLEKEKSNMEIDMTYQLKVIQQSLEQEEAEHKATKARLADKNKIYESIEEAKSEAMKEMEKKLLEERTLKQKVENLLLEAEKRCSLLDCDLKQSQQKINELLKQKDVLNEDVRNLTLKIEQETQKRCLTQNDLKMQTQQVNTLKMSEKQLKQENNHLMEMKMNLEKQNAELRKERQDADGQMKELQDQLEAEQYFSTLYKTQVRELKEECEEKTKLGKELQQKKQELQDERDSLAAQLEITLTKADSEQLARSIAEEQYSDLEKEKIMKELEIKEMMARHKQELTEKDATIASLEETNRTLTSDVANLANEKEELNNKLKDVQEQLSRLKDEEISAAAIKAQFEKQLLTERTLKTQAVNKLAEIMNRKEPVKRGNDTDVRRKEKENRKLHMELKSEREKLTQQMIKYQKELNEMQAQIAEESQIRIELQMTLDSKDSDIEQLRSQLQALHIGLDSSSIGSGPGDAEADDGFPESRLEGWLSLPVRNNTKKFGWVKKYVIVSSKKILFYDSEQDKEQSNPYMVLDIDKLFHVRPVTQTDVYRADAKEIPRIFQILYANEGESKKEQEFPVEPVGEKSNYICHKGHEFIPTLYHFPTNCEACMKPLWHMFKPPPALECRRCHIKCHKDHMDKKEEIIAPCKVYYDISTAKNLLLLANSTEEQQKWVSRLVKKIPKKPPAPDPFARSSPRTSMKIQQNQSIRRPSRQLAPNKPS

As to `NC(C(=O)N1CCC(Nc2ccc3[nH]ncc3c2)CC1)c1cccc(Cl)c1` (configuration not stated), the figures for the IC50 (in series [1]; at Cytochrome P450 3A4) were 0.15 µM and 0.17 µM, respectively.
On the same counts, the results for `O=C([C@@H](O)c1cccc(Cl)c1)N1CCC(Nc2ccc3[nH]ncc3c2)CC1` are 0.35 µM and 2 µM.
As for `NC(C(=O)N1CCC(Nc2ccc3[nH]ncc3c2)CC1)c1ccc(Br)cc1` (configuration not stated), the bioavailability (usually dose-corrected exposure relative to a reference, in per cent) in series [2] worked out at 8%. The Ratio IC50 in the series listed under Homo sapiens [3] is 72; in the series filed under Homo sapiens [10], 554. The IC50 (commonly the concentration that gives 50% inhibition) in [1] was 0.013 µM; in series [6], 0.94 µM; in series [7], 7.2 µM; at Cytochrome P450 3A4, 0.49 µM; with N2a it was 5.7 µM. For the same compound, the half-life (commonly the time in which the quantity being followed falls by half) in series [4] (microsomes) is 10.8 min; in series [8] it was 36 min. The Tmax (as a rule, the time at which the peak concentration occurs) in series [5] came to 42 min. In series [9], the Vd (usually the apparent volume that relates the amount in the body to the concentration in plasma or blood) was 1.7 L/kg. Moreover, the AUC(0-inf) (commonly the area under the concentration-time curve extrapolated to infinity) came to 0.15 µM·h in series [11] and 0.95 µM·h in series [12]. The Cmax (commonly the peak of the concentration-time curve) in series [13] worked out at 100 nM. In series [14], the clearance (in general, the volume of plasma or blood freed of the substance per unit of time) is 41.4 mL/min/kg.
Regarding `NC(C(=O)N1CCN(c2ccc3[nH]ncc3c2)CC1)c1ccc(Br)cc1` (configuration not stated), the bioavailability in [2] was determined as 8%. The Ratio IC50 is 5 in the series filed under Homo sapiens [3] and greater than 222 in the series filed under Homo sapiens [10]. Moreover, the IC50 was 0.09 µM in [1]; 0.45 µM in series [6]; greater than 20 µM in series [7]; 0.41 µM on Cytochrome P450 3A4; greater than 15 µM with N2a. Also, the half-life in series [4] (liver microsomes) was 9.8 min; in series [8] it was 36 min. Also, the Tmax in series [5] came out at 24 min. The compound also yielded a Vd in series [9] of 2.7 L/kg. Further, the AUC(0-inf) in series [11] stood at 0.09 µM·h; in [12], 0.54 µM·h. This compound also displayed a Cmax in series [13] of 400 nM. This compound also had a clearance in series [14] of 75.5 mL/min/kg.
For `N[C@H](Cc1ccccc1)C(=O)N1CCN(c2ccc3[nH]ncc3c2)CC1`, the IC50 in series [1] was 0.38 µM; against Cytochrome P450 3A4, 7 µM.
For `O=C([C@@H](O)c1ccccc1Cl)N1CCC(Nc2ccc3[nH]ncc3c2)CC1`, in that order: 1.7 µM and 4 µM.
For `N[C@@H](Cc1ccccc1)C(=O)N1CCC(Nc2ccc3[nH]ncc3c2)CC1`, in that order: 0.47 µM and 1 µM.
Consider `O=C(C(O)c1ccc(Br)cc1)N1CCN(c2ccc3[nH]ncc3c2)CC1` (configuration not stated), for which the bioavailability in series [2] amounted to 28%. In addition, the IC50 in series [1] was 0.1 µM; in [6], 2.7 µM; in [7] it was greater than 20 µM; with N2a, 2.4 µM. The Tmax in series [5] is 24 min. Further, the half-life in [8] is 42 min. In addition, the Vd in series [9] stood at 3.7 L/kg. The AUC(0-inf) in series [11] turned out to be 0.21 µM·h; in series [12], 0.38 µM·h. Further, the Cmax in [13] is 100 nM. The clearance in series [14] is 109 mL/min/kg.
As to `C[C@H](N)C(=O)N1CCC(Nc2ccc3[nH]ncc3c2)CC1`, the IC50 in series [1] was 6 µM; at Cytochrome P450 3A4, greater than 10 µM.
For `NC(C(=O)N1CCN(c2ccc3[nH]ncc3c2)CC1)c1cccc(Cl)c1` (configuration not stated), in that order: 0.76 µM and 0.25 µM.
On the same counts, the results for `O=C([C@H](O)c1ccccc1Cl)N1CCN(c2ccc3[nH]ncc3c2)CC1` are 1.2 µM and 8 µM.
In turn, `O=C(C(O)c1ccc(Br)cc1)N1CCC(Nc2ccc3[nH]ncc3c2)CC1` (configuration not stated) registered a bioavailability in series [2] of 26%. Besides, the results for the Ratio IC50 in the series filed under Homo sapiens [3] and in the series listed under Homo sapiens [10] were 53 and greater than 250, respectively. For the same compound, the IC50 in series [1] is 0.08 µM; in series [6], 4.2 µM; in series [7], greater than 20 µM; against Cytochrome P450 3A4, 3.5 µM; in the series on N2a, 3.5 µM. Besides, the half-life in [4] (liver microsomes) is 36.3 min; in series [8], 66 min. The Tmax in series [5] amounted to 24 min. In series [9], the Vd came to 1.9 L/kg. Moreover, the results for the AUC(0-inf) in series [11] and in series [12] were 0.71 µM·h and 1.35 µM·h, respectively. The compound also gave a Cmax in [13] of 200 nM. The compound further had a clearance in series [14] of 30.3 mL/min/kg.
`C[C@H](O)C(=O)N1CCC(Nc2ccc3[nH]ncc3c2)CC1`: the IC50 in [1] was found to be 10 µM; on Cytochrome P450 3A4 it was 1 µM.
The compound `N[C@H](C(=O)N1CCC(Nc2ccc3[nH]ncc3c2)CC1)c1ccccc1` displayed an IC50 in series [1] of 0.83 µM.
With `O=C(C(O)c1ccc(Cl)cc1)N1CCN(c2ccc3[nH]ncc3c2)CC1` (configuration not stated), the IC50 amounted to 0.19 µM in series [1] and 3 µM at Cytochrome P450 3A4.
For `N[C@@H](C(=O)N1CCN(c2ccc3[nH]ncc3c2)CC1)c1ccccc1`, in that order: 1.3 µM and 0.47 µM.
On the same counts, the results for `NC(C(=O)N1CCN(c2ccc3[nH]ncc3c2)CC1)c1ccc(Cl)cc1` (configuration not stated) are 0.19 µM and 0.53 µM.
Take `CC(C)[C@@H](O)C(=O)N1CCN(c2ccc3[nH]ncc3c2)CC1`: the IC50 in series [1] stood at 3.9 µM; at Cytochrome P450 3A4, 10 µM.
On the same counts, the results for `O=C([C@H](O)c1ccccc1)N1CCN(c2ccc3[nH]ncc3c2)CC1` are 0.8 µM and 10 µM.
On the same counts, the results for `O=C([C@@H]1Cc2ccccc2CN1)N1CCN(c2ccc3[nH]ncc3c2)CC1` are 5.3 µM and 10 µM.
With `C[C@@H](N)C(=O)N1CCN(c2ccc3[nH]ncc3c2)CC1`, the figures for the IC50 (in [1]; on Cytochrome P450 3A4) were greater than 10 µM and 10 µM, respectively.
`O=C([C@H](O)c1ccccc1)N1CCC(Nc2ccc3[nH]ncc3c2)CC1`: the IC50 in series [1] turned out to be 0.77 µM; at Cytochrome P450 3A4, 1 µM.
On the same counts, the results for `O=C([C@H](O)c1cccc(Cl)c1)N1CCN(c2ccc3[nH]ncc3c2)CC1` are 1 µM and 3.5 µM.

Values taken from ChEMBL document CHEMBL1139200, “Structure-activity relationships, and drug metabolism and pharmacokinetic properties for indazole piperazine and indazole piperidine inhibitors of ROCK-II” (Bioorg Med Chem Lett, 2007).
